Laboratory results: the NIST ThermoML archive (doi:10.1021/je800251v)

Conditions: Liquid

CCCC(=O)OCC [ethyl butanoate]
Conditions	mass density [kg/m3]
298.15 K, 100 kPa	873.3
298.15 K, 1000 kPa	874.1
298.15 K, 2000 kPa	875
298.15 K, 3000 kPa	875.9
298.15 K, 3100 kPa	876
298.15 K, 5000 kPa	877.5
298.15 K, 10000 kPa	881.5
298.15 K, 15000 kPa	885.3
298.15 K, 20000 kPa	889
298.15 K, 25000 kPa	892.5
298.15 K, 30000 kPa	896.9
298.15 K, 35000 kPa	901.4
303.15 K, 100 kPa	868.1
303.15 K, 1000 kPa	868.9
303.15 K, 2000 kPa	869.8
303.15 K, 3000 kPa	870.7
303.15 K, 3100 kPa	870.7
303.15 K, 5000 kPa	872.4
303.15 K, 10000 kPa	876.5
303.15 K, 15000 kPa	880.4
303.15 K, 20000 kPa	884.1
303.15 K, 25000 kPa	887.8
303.15 K, 30000 kPa	892.3
303.15 K, 35000 kPa	896.9
308.15 K, 100 kPa	862.6
308.15 K, 1000 kPa	863.5
308.15 K, 2000 kPa	864.4
308.15 K, 3000 kPa	865.3
308.15 K, 3100 kPa	865.4
308.15 K, 5000 kPa	867.1
308.15 K, 10000 kPa	871.4
308.15 K, 15000 kPa	875.5
308.15 K, 20000 kPa	879.4
308.15 K, 25000 kPa	883.1
308.15 K, 30000 kPa	887.8
308.15 K, 35000 kPa	892.5
313.15 K, 100 kPa	857.3
313.15 K, 1000 kPa	858.2
313.15 K, 2000 kPa	859.1
313.15 K, 3000 kPa	860.1
313.15 K, 3100 kPa	860.2
313.15 K, 5000 kPa	861.9
313.15 K, 10000 kPa	866.3
313.15 K, 15000 kPa	870.5
313.15 K, 20000 kPa	874.5
313.15 K, 25000 kPa	878.4
313.15 K, 30000 kPa	883.2
313.15 K, 35000 kPa	888.1
318.15 K, 100 kPa	851.9
318.15 K, 1000 kPa	852.8
318.15 K, 2000 kPa	853.8
318.15 K, 3000 kPa	854.8
318.15 K, 3100 kPa	854.9
318.15 K, 5000 kPa	856.7
318.15 K, 10000 kPa	861.3
318.15 K, 15000 kPa	865.8
318.15 K, 20000 kPa	869.9
318.15 K, 25000 kPa	874.1
318.15 K, 30000 kPa	879
318.15 K, 35000 kPa	884.1
323.15 K, 100 kPa	846.7
323.15 K, 1000 kPa	847.4
323.15 K, 2000 kPa	848.4
323.15 K, 3000 kPa	849.5
323.15 K, 3100 kPa	849.6
323.15 K, 5000 kPa	851.7
323.15 K, 10000 kPa	856.7
323.15 K, 15000 kPa	861.1
323.15 K, 20000 kPa	865.4
323.15 K, 25000 kPa	869.4
323.15 K, 30000 kPa	874.5
323.15 K, 35000 kPa	879.7
328.15 K, 100 kPa	841.4
328.15 K, 1000 kPa	842
328.15 K, 2000 kPa	843.3
328.15 K, 3000 kPa	844.5
328.15 K, 3100 kPa	844.6
328.15 K, 5000 kPa	846.6
328.15 K, 10000 kPa	851.5
328.15 K, 15000 kPa	856.2
328.15 K, 20000 kPa	860.5
328.15 K, 25000 kPa	864.8
328.15 K, 30000 kPa	870
328.15 K, 35000 kPa	875.3
333.15 K, 100 kPa	835.8
333.15 K, 1000 kPa	837
333.15 K, 2000 kPa	838.1
333.15 K, 3000 kPa	839.2
333.15 K, 3100 kPa	839.3
333.15 K, 5000 kPa	841.2
333.15 K, 10000 kPa	846.3
333.15 K, 15000 kPa	851.1
333.15 K, 20000 kPa	855.6
333.15 K, 25000 kPa	860.1
333.15 K, 30000 kPa	865.4
333.15 K, 35000 kPa	870.8
338.15 K, 100 kPa	830.3
338.15 K, 1000 kPa	831.5
338.15 K, 2000 kPa	832.6
338.15 K, 3000 kPa	833.8
338.15 K, 3100 kPa	833.9
338.15 K, 5000 kPa	835.9
338.15 K, 10000 kPa	841.2
338.15 K, 15000 kPa	846.2
338.15 K, 20000 kPa	850.8
338.15 K, 25000 kPa	855.5
338.15 K, 30000 kPa	861
338.15 K, 35000 kPa	866.5
343.15 K, 100 kPa	824.8
343.15 K, 1000 kPa	825.9
343.15 K, 2000 kPa	827.1
343.15 K, 3000 kPa	828.3
343.15 K, 3100 kPa	828.4
343.15 K, 5000 kPa	830.7
343.15 K, 10000 kPa	836.2
343.15 K, 15000 kPa	841.4
343.15 K, 20000 kPa	846.1
343.15 K, 25000 kPa	850.1
343.15 K, 30000 kPa	855.7
343.15 K, 35000 kPa	861.8
348.15 K, 100 kPa	819.1
348.15 K, 1000 kPa	820.3
348.15 K, 2000 kPa	821.6
348.15 K, 3000 kPa	822.9
348.15 K, 3100 kPa	823
348.15 K, 5000 kPa	825.1
348.15 K, 10000 kPa	830.9
348.15 K, 15000 kPa	836.2
348.15 K, 20000 kPa	841.1
348.15 K, 25000 kPa	846
348.15 K, 30000 kPa	851.8
348.15 K, 35000 kPa	857.7
353.15 K, 100 kPa	813.5
353.15 K, 1000 kPa	814.7
353.15 K, 2000 kPa	816.1
353.15 K, 3000 kPa	817.4
353.15 K, 3100 kPa	817.5
353.15 K, 5000 kPa	819.8
353.15 K, 10000 kPa	825.7
353.15 K, 15000 kPa	831.2
353.15 K, 20000 kPa	836.3
353.15 K, 25000 kPa	841.4
353.15 K, 30000 kPa	847.4
353.15 K, 35000 kPa	853.4
363.15 K, 100 kPa	799.9
363.15 K, 1000 kPa	801.4
363.15 K, 2000 kPa	803
363.15 K, 3000 kPa	804.5
363.15 K, 3100 kPa	804.7
363.15 K, 5000 kPa	807.9
363.15 K, 10000 kPa	814.4
363.15 K, 15000 kPa	820.7
363.15 K, 20000 kPa	826.7
363.15 K, 25000 kPa	832.4
363.15 K, 30000 kPa	837.7
363.15 K, 35000 kPa	842.7
373.15 K, 100 kPa	788.5
373.15 K, 1000 kPa	790.1
373.15 K, 2000 kPa	791.7
373.15 K, 3000 kPa	793.4
373.15 K, 3100 kPa	793.6
373.15 K, 5000 kPa	796.8
373.15 K, 10000 kPa	804
373.15 K, 15000 kPa	810.8
373.15 K, 20000 kPa	817.2
373.15 K, 25000 kPa	823.1
373.15 K, 30000 kPa	828.7
373.15 K, 35000 kPa	834
383.15 K, 100 kPa	776.9
383.15 K, 1000 kPa	778.6
383.15 K, 2000 kPa	780.4
383.15 K, 3000 kPa	782.2
383.15 K, 3100 kPa	782.4
383.15 K, 5000 kPa	785.5
383.15 K, 10000 kPa	793.5
383.15 K, 15000 kPa	800.8
383.15 K, 20000 kPa	807.5
383.15 K, 25000 kPa	813.8
383.15 K, 30000 kPa	819.6
383.15 K, 35000 kPa	825.2
393.15 K, 100 kPa	765.1
393.15 K, 1000 kPa	766.9
393.15 K, 2000 kPa	768.8
393.15 K, 3000 kPa	770.8
393.15 K, 3100 kPa	771
393.15 K, 5000 kPa	774.5
393.15 K, 10000 kPa	783.1
393.15 K, 15000 kPa	790.9
393.15 K, 20000 kPa	798
393.15 K, 25000 kPa	804.6
393.15 K, 30000 kPa	810.7
393.15 K, 35000 kPa	816.6
